Data on 2 substances can be found in patent US20030198617A1, “Pharmaceutical tryptophan containing dipeptide compositions and methods of use thereof” (priority 1993, published 2003).

“Also recorded” adds a separate entry of the source. Read-outs that look alike come from different tables or passages of the source.

Test [1] can be described thus: Pyoderma patients (furunculitis, cellulitis, folliculitis). The following applies: IM or intranasally 5 days. Type of test: in vivo, human. As to the method: Patients with pyoderma, including furunculitis, cellulitis, and folliculitis, are treated with Ile-Trp with a control group which is not treated with Ile-Trp. Medications are administered either IM or intranasally for 5 consecutive days. […] Clinical improvement correlate with immunological indices correction. Administration IM, intranasally, or topically as a sterile saline, solution of medication for a period of 5 to 10 days at a concentration of 1 μg/kg body weight.
Medications were administered either IM or intranasally for 5 consecutive days. […] Clinical improvement correlated with immunological indices correction. Administration IM, intranasally, or topically as a sterile saline solution of medication for a period of 5 to 10 days at a concentration of 1 μg/kg body weight.

The nature of test [2]: Eye problems, with conventional treatment. Format: in vivo, human. The method, then: Patients with various eye problems are treated by conventional methods, with one group receiving Ile-Trp in addition to the conventional treatment.
Test [3] can be described thus: Deformity and scarring after injuries. Type of test: in vivo, human.
The next test relates to leprosy. The experiment in a line: Leprosy (Hansen's disease). Type of test: in vivo, human.
A short description of the next test: Toxemia of pregnancy. Format: in vivo, human. As to the method:
Ile-Trp is applied in pregnant women with Toxemia of first and second half of pregnancy. Ile-Trp is administered IM and intranasally at 100 μg daily for 5-10 days. It is observed that the BP normalized, and peripheral edema is reduced with normalization of the blood chemistry profile, and the restoration of initially altered immunologic indices.
The control group comprised 54 patients.

The nature of test [4]: Patients subjected to skin grafting. Type of test: in vivo, human. The method, then: Ile-Trp is administered to patients subjected to skin grafting. Ile-Trp is administered IM or intranasally single daily at 50-100 μg for 5 days.
The control group comprised 27 patients. […] In control group the manifestations of rejection were determined in 8 patients.

A short description of test [5]: Bone-marrow compromise (transplant or radiation exposure). Type of test: in vivo, human.
Test [6] in a line: Massive hemotransfusions in post-operative period. Type of test: in vivo, human. The method, then: Patients exposed to massive hemotransfusions during post-operative period are treated with Ile-Trp. The peptide is administered starting from 4-6 day of post-operative period single daily IM or intranasally in doses 100 μg for 5 days.
A further test can be described thus: Cutaneous burns. Format: in vivo, human. As to the method:
Patients with cutaneous burns are treated with Ile-Trp either IM or intranasally.

Test [7] is described as follows: Symptom complexes: joint pain, muscle aches, fevers, chills (Examples 17, 66). Type of test: in vivo, human.
Test [8] is described as follows: Chronic and acute ear infections. Type of test: in vivo, human.
The next test is described as follows: Acne vulgaris patients. Type of test: in vivo, human. From the text: A number of patients within the group patients afflicted with furunculitis, pyoderma, cellulitis, and folliculitis are afflicted with acne vulgaris and acne. […] The clinical outcome correlates with the correction of immunological indices, and relapses are controlled.
A number of patients within the group of 159 patients afflicted with furunculitis, pyoderma, cellulitis, and folliculitis were afflicted with acne vulgaris and acne. […] The clinical outcome correlated with the correction of immunological indices, and relapses were controlled.

For a further test, the system named is AIDS. The experiment in a line: AIDS infected and immunosuppressed individuals. Format: in vivo, human.
Test [9] is described as follows: Sinus disease patients (Examples 14, 63). The note with it: 3-10 days. Type of test: in vivo, human. The source says: The decrease of treatment duration up to 1.7 times compared to controls.
The nature of test [10]: Female patients with pelvic inflammatory diseases, cervicitis, vaginitis, abscesses. Format: in vivo, human. As to the method: Female patients with the various disorders (pelvic inflammatory diseases, cervicitis, vaginitis and various tubo-ovarian and adnexal abscesses) are treated and some patients are used as controls. Ile-Trp is applied IM, intranasally at 100 μg 5 consecutive days or 50 μg intralymphatically for 5 consecutive days in conjunction with conventional therapy. […] The normalization of immune status correlates with clinical improvements.
The normalization of immune status correlated with clinical improvements.

The nature of test [11]: Gingival disease patients. Type of test: in vivo, human. The method, then:
Patients are treated for gingival disease by subcutaneous administration of Ile-Trp in the area of the gingiva. […] Administration of 100 μg IM, subcutaneously, or by electrophoresis (whereby a small voltage charge to the gums results in a rapid transfer of medication through the gum epithelium) results in the arresting of bleeding, more rapid restoration of inflammatory processes, and the decrease of purulent discharge. The treatment results in fewer recurrences and prolongation of normal gums.

The next test is described as follows: Wounds of various origin. Format: in vivo, human. The method, then: Ile-Trp is used in patients with wounds of various origin, type and localization. Ile-Trp is administered IM or topically single daily at 100 μg for 10 days.
The control group comprised 24 patients.

The test system of the next test is tropical malaria. The experiment in a line: Relapsing tropical malaria. Type of test: in vivo, human. The method, then:
Patients are studied who have relapsing forms of tropical malaria, moderate to severe, and severe cases with 21 patients in the control group. Ile-Trp is administered at 100 μg single daily doses Im or intranasally for 5-10 days.
A total of 33 patients were studied with patients who had relapsing forms of tropical malaria, moderate to severe, and severe cases with 21 patients in the control group.

Test [12] in a line: Frostbite to the extremities. Type of test: in vivo, human. As to the method: Patients with frostbite to the extremities are treated with Ile-Trp either IM or intranasally.

Text for Shigella: A total 125 patients infected with Shigella dysentery are examined.
A total 125 patients with 53 patients for control infected with Shigella dysentery were examined.

In the case of Glu-Trp [IM862], the clinical effect entry was “Immunological indices were normalized with disappearance of skin manifestations” in test [1] (IM862, 159 patients); “more rapid arresting of the inflammatory process” in [2] (IM862 intra ocularly 18 μg 5 days or drops, 41 patients); “less deformity and scarring” in test [3] (IM862 IM or intranasally); “resolution of the lesions” with leprosy (IM862 100 μg 5 days with conventional therapy, 45 patients); “BP normalized” in “Toxemia of pregnancy” (IM862 100 μg daily 5-10 days, 97 women); “improved immune parameters” in [5] (IM862 IM or intranasally). Moreover, the clinical effect entry in “Cutaneous burns” (IM862 IM or intranasally, 23 patients) is “Accelerated wound healing, diminished frequency of infections, and less eschar”; in test [7] (IM862 100 μg 5-10 days, 156 patients) it was “accelerated reduction in symptom complexes”; in [8] (IM862 with antibiotics) it was “accelerated healing of chronic and acute ear infections”; in test [9] (IM862 1 μg/kg, 51 patients) it was “normalization of nasal breathing”; in test [10] (IM862 with conventional therapy, 46 patients), “arresting of pain syndrome”; in [11] (IM862, subcutaneous in the gingiva), “arresting of gingival disease”. Besides, the clinical effect entry with Shigella (IM862 IM 100 μg 10 days, 125 patients) is “normalization of fever”; in the test on tropical malaria (IM862 100 μg 5-10 days, 33 patients), “reduction of hepatolineal syndrome”; in test [12] (IM862 IM or intranasally, 17 patients), “rapid healing and restoration of tissue integrity”. In addition, the “infectious complications and graft rejection” value in [4] (IM862 50-100 μg 5 days, all 17 patients) was “prevented the arising of infections complications and graft rejection”. The alloblood rejection result in test [6] (IM862 100 μg 5 days, 76 patients) is given as “None of studies patients showed clinical manifestation of alloblood rejection”. The immunological indices entry is “corrected and normalized rapidly” in the test “Acne vulgaris patients” (IM862 group); “excellent restoration of immunological indices” in the test with AIDS (IM862, immunosuppressed individuals with radiation injuries). In addition, the “comparison with TPI as cell mediator” value in the test with AIDS (IM862 vs TPI) was “far more effective cell mediator”. The “decrease of treatment duration compared to controls” value in test [9] (IM862 1 μg/kg) is recorded as “up to 1.7 times”. Moreover, the wound healing entry in “Wounds of various origin” (IM862) is reported as “speeded up; also recorded: accelerates wound healing”.
On to Ile-Trp, for which the clinical effect entry in test [1] (Ile-Trp) is “Immunological indices are normalized with disappearance of skin manifestations”; in [2] (Ile-Trp intra ocularly 18 μg 5 days or drops), “more rapid arresting of the inflammatory process”; in test [3] (Ile-Trp IM or intranasally), “less deformity and scarring”; in the test with leprosy (Ile-Trp 100 μg 5 days with conventional therapy), “resolution of the lesions”; in the test “Toxemia of pregnancy” (Ile-Trp 100 μg daily 5-10 days), “BP normalized”; in test [5] (Ile-Trp IM or intranasally) it was “improved immune parameters”. The clinical effect result is “Accelerated wound healing, diminished frequency of infections, and less eschar” in “Cutaneous burns” (Ile-Trp IM or intranasally); “accelerated reduction in symptom complexes” in [7] (Ile-Trp 100 μg 5-10 days); “accelerated healing of chronic and acute ear infections” in [8] (Ile-Trp with antibiotics); “normalization of nasal breathing” in test [9] (Ile-Trp 1 μg/kg); “arresting of pain syndrome” in [10] (Ile-Trp with conventional therapy); “arresting of gingival disease” in test [11] (Ile-Trp, subcutaneous in the gingiva). Also, the clinical effect entry with Shigella (Ile-Trp IM 100 μg 10 days) is “normalization of fever”; in the test on tropical malaria (Ile-Trp 100 μg 5-10 days), “reduction of hepatolineal syndrome”; in [12] (Ile-Trp IM or intranasally), “Rapid healing and restoration of tissue integrity”. The “infectious complications and graft rejection” value in test [4] (Ile-Trp 50-100 μg 5 days) was “prevents the arising of infections complications and graft rejection”. Further, in [6] (Ile-Trp 100 μg 5 days), the alloblood rejection result was “do not show clinical manifestation of alloblood rejection”. Further, the immunological indices result in the test “Acne vulgaris patients” (Ile-Trp group) is “corrected and normalized rapidly”; in the test with AIDS (Ile-Trp, immunosuppressed individuals with radiation injuries) it was “excellent restoration of immunological indices”. Besides, the “immunologic indices, T-cell functional activity, T4/T8 ratios” value in the test with AIDS (Ile-Trp, AIDS infected individuals) is reported as “restoring normal immunologic indices”. Further, the wound healing entry in the test “Wounds of various origin” (Ile-Trp) is recorded as “speeds up; also recorded: accelerates wound healing”.
